Source: patent US20180265467A1, “PYRAZOLIDINE DERIVATIVES AND RELATED COMPOUNDS” (SELVITA S.A., priority 2015, published 2018)

Tests used:
LDHA = target: T1, LDHA (Homo sapiens, UniProt P00338); test: LDHA assay (decrease in NADH fluorescence); assay type: biochemical; conditions: numeric bound given instead of a class symbol
T1 construct: purchased Abcam ab93699
Experimental: LDHA and LDHB inhibitory activity of compounds of the present invention is quantified employing the decrease in fluorescence of the cofactor—NADH (being the result of oxidation of NADH to NAD+), over the reaction. […] All the experiments are performed in duplicates in a 96-well plate system (black, flat bottom, non-binding).
The procedure for preparation of the experimental plate is as follows (total volume of the reaction mixture: 200 μL/well):
Conditions for LDHA (Abcam, Cat. No# ab93699) Assay
Mixture of appropriate 1× concentrated reaction buffer (175 μL/well) and 40× concentrated LDHA (5 μL/well); pre-incubate for 30 mins at RT is combined with 20× concentrated pyruvate (10 μL/well) and 20× concentrated NADH (10 μL/well). Tested compounds are dissolved in solvent (DMSO, MeOH, EtOH), and then transferred to the V-bottom 96-well plate (mother plate). Single dilution (for % of inhibition determination) or 8-serial dilutions (for IC50 determination) are prepared using the appropriate solvent. The level of NADH fluorescence is then measured using multimode microplate reader (EnSpire, Perkin Elmer). The reaction should be monitored over 20 minutes with the full plate read performed each 5 minutes. Enzymatic reaction should be run at RT.
IC50 is a quantitative measure that indicates how much of a particular compound (inhibitor) is needed to inhibit a given biological process by half. […]

SNU-398 cells = test: SNU-398 cellular lactate production assay; assay type: cell-based; conditions: Snu398 cells; shown in FIG. 1
Experimental: In each case, and by methods known to those practiced, measurement of cellular lactate production is used to measure the activity of compounds on cancer cells.
Cells are seeded on 96-well plate in complete culture medium (200 μL media/well) at a density of 80,000 SNU-398 cells/well. The following day, eight serial dilutions of the test compound is prepared in complete culture medium and added to cells in a fresh media for 2 h. Following incubation 30 μL of culture medium from each well is transferred to a corresponding well on a new 96-well plate. In parallel Lactate Standard (30 μL/well) (Sigma, Cat. # L7022) is prepared in order to create a standard curve. 60 μL of Lactate Reagent (P000024, M Dialysis AB) is added to each well containing lactate standards or test samples and Incubated in dark for 10 min at RT followed by measurement of OD at 530 nm in a microplate reader.
Background subtracted values derived from the lactate standard and sample readings are used to determine ED50 (or % of inhibition) from data obtained in SNU-398 cellular lactate production assay:
ED50 is a quantitative measure that indicates how much of a particular compound is needed to reduce SNU-398 lactate production by half. After normalization to DMSO-control, the value of ED50 is determined by the GraphPad Prism 5.0 [log(inhibitor) vs. normalized response—Variable slope]. […]

SMILES | IC50 (LDHA) | Inhibition of lactate production (SNU-398 cells)
O=C1N[C@H](Cc2ccccc2)C(O)=C1Sc1cc(Br)ccc1Cl [Example 6E, 5-benzyl-3-[(5-bromo-2-chlorophenyl)sulfanyl]pyrrolidine-2,4-dione] | > 300 µM | –
O=c1c(Sc2ccccc2Cl)c(O)[nH]n1C(c1ccccc1)c1ccc(N2CCOCC2)cc1 (centres unmarked) [Example 8A, Ammonium 4-[(2-chlorophenyl)sulfanyl]-2-{[4-(morpholin-4-yl)phenyl](phenyl)methyl}-5-oxo-2,5-dihydro-1H-pyrazol-3-olate] | – | Inhibition of lactate production
